Reference: ChEMBL document CHEMBL1201862, “PubChem BioAssay data set” (2004)
Activity calls are given as the source filed them.

Assays:
[1] = target: T1, Cysteine protease ATG4B (Homo sapiens, UniProt Q9Y4P1); assay type: functional;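 further: Fluorescence-based dose-response confirmation assay measuring inhibition of ATG4B activity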
T1 sequence (Q9Y4P1 whole entry): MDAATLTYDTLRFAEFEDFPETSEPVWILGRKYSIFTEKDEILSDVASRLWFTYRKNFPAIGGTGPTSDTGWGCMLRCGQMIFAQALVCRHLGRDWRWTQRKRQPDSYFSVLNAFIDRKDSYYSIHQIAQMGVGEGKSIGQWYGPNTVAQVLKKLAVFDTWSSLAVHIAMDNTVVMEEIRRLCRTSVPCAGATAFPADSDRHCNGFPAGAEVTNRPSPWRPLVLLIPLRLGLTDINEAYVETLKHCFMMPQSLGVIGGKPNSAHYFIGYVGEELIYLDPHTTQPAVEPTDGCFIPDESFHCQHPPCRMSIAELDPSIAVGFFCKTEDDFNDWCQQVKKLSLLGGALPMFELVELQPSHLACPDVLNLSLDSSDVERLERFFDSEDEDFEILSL

[2] = target: Phospholipase A2 (Homo sapiens, UniProt P04054); assay type: functional;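 further: confirmatory dose-response counterscreen on phospholipase A2, testing hits that came from an ultra-high-throughput screen for ATG4B inhibitors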
Sequence of Phospholipase A2 (P04054 whole entry): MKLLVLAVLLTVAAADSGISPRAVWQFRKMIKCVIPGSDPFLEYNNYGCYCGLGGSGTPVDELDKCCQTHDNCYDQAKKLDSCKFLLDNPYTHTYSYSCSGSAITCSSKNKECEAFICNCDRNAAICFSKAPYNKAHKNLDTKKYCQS

[3] = test system: HEK293; test: EBV LMP1 TES2 canonical NF-kB signalling blockers – cell-based, HEK293, luciferase, cherry-pick, dose response (AID 588343); assay type: functional; conditions: Homo sapiens
[4] = blockers of HIV-1 ZM109 envelope-driven cell-cell fusion – HeLa effector, CEM target cells, luciferase, cherry-pick, dose response (AID 652058); assay type: functional, cell-based;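 further: luciferase signal from HIV-1 Env mediated cell-cell fusion of effector and target cells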
[5] = off-target signal loss in HeLa-CEM21 co-culture – HeLa F-luc CTL cells, cherry-picked, counter-screen for HIV-1 Env fusion inhibitor project, dose response (AID 652040); assay type: functional, cell-based;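 further: potency for signal decrease marking cytotoxic or nonspecific inhibition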
[6] = HIV-1 AD8 envelope cell-cell fusion blockers – cherry-pick, dose response (AID 652062); assay type: functional, cell-based;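 further: luciferase signal from cell-cell fusion driven by HIV-1 clade B AD8 Env; potency is for inhibitors of fusion seen as a drop in luminescence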
[7] = blockers of HIV-1 envelope-mediated cell-cell fusion – cherry-pick, dose response (AID 652057); assay type: functional, cell-based
[8] = target: T2, Rac GTPase-activating protein 1 (Homo sapiens, UniProt Q9H0H5); test: blockers of MgcRacGAP-driven Rac1 GTP hydrolysis – biochemical, ADP Hunter fluorescence, primary and confirmatory, confirmation (AID 624330); assay type: functional
T2 sequence (Q9H0H5 whole entry): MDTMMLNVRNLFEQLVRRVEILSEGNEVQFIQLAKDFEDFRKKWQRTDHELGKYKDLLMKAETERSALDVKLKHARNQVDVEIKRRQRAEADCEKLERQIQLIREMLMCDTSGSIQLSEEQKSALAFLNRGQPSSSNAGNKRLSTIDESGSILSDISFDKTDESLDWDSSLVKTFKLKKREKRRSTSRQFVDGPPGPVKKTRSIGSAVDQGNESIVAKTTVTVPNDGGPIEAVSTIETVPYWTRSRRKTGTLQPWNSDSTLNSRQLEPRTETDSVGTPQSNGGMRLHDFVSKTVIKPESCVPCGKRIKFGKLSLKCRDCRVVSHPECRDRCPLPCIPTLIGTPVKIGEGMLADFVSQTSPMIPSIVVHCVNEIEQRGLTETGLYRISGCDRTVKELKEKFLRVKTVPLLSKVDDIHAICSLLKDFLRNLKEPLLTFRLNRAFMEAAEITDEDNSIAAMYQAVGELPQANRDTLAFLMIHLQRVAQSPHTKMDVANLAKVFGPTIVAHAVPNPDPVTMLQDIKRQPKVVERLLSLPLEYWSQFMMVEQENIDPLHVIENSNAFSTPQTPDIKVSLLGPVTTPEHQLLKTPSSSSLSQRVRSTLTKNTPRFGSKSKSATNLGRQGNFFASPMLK

[9] = viability loss in HeLa cells – cytotoxicity control for MgcRacGAP inhibitor project, dose response (AID 624300); assay type: functional
[10] = target: T3, Mitochondrial peptide methionine sulfoxide reductase (Bos taurus, UniProt P54149); test: Absorbance-based biochemical high throughput dose response assay for activators of Methionine sulfoxide reductase A (MsrA).; assay type: functional
T3 sequence (P54149 whole entry): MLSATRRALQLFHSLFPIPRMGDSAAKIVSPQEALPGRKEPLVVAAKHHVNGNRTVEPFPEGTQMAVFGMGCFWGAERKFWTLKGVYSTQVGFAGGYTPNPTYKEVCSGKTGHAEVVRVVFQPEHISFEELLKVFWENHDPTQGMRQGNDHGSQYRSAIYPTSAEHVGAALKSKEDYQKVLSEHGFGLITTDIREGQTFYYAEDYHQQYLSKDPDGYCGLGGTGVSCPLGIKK

[11] = target: T4, Low molecular weight phosphotyrosine protein phosphatase (Homo sapiens, UniProt P24666); assay type: functional; conditions: read-out: IC50_Mean;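 further: Dose-response confirmation assay measuring inhibition of LMPTP enzyme activity by fluorescence intensity read-out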
T4 sequence (P24666 whole entry): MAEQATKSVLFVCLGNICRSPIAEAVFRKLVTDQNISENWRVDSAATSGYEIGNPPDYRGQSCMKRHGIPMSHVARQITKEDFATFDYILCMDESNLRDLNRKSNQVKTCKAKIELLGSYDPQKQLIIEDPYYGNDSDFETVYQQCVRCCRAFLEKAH

[12] = target: Voltage-dependent T-type calcium channel subunit alpha-1H (Homo sapiens, UniProt O95180); assay type: functional;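 further: channel activity triggered by adding a high calcium stimulation buffer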
Sequence of Voltage-dependent T-type calcium channel subunit alpha-1H (O95180 whole entry): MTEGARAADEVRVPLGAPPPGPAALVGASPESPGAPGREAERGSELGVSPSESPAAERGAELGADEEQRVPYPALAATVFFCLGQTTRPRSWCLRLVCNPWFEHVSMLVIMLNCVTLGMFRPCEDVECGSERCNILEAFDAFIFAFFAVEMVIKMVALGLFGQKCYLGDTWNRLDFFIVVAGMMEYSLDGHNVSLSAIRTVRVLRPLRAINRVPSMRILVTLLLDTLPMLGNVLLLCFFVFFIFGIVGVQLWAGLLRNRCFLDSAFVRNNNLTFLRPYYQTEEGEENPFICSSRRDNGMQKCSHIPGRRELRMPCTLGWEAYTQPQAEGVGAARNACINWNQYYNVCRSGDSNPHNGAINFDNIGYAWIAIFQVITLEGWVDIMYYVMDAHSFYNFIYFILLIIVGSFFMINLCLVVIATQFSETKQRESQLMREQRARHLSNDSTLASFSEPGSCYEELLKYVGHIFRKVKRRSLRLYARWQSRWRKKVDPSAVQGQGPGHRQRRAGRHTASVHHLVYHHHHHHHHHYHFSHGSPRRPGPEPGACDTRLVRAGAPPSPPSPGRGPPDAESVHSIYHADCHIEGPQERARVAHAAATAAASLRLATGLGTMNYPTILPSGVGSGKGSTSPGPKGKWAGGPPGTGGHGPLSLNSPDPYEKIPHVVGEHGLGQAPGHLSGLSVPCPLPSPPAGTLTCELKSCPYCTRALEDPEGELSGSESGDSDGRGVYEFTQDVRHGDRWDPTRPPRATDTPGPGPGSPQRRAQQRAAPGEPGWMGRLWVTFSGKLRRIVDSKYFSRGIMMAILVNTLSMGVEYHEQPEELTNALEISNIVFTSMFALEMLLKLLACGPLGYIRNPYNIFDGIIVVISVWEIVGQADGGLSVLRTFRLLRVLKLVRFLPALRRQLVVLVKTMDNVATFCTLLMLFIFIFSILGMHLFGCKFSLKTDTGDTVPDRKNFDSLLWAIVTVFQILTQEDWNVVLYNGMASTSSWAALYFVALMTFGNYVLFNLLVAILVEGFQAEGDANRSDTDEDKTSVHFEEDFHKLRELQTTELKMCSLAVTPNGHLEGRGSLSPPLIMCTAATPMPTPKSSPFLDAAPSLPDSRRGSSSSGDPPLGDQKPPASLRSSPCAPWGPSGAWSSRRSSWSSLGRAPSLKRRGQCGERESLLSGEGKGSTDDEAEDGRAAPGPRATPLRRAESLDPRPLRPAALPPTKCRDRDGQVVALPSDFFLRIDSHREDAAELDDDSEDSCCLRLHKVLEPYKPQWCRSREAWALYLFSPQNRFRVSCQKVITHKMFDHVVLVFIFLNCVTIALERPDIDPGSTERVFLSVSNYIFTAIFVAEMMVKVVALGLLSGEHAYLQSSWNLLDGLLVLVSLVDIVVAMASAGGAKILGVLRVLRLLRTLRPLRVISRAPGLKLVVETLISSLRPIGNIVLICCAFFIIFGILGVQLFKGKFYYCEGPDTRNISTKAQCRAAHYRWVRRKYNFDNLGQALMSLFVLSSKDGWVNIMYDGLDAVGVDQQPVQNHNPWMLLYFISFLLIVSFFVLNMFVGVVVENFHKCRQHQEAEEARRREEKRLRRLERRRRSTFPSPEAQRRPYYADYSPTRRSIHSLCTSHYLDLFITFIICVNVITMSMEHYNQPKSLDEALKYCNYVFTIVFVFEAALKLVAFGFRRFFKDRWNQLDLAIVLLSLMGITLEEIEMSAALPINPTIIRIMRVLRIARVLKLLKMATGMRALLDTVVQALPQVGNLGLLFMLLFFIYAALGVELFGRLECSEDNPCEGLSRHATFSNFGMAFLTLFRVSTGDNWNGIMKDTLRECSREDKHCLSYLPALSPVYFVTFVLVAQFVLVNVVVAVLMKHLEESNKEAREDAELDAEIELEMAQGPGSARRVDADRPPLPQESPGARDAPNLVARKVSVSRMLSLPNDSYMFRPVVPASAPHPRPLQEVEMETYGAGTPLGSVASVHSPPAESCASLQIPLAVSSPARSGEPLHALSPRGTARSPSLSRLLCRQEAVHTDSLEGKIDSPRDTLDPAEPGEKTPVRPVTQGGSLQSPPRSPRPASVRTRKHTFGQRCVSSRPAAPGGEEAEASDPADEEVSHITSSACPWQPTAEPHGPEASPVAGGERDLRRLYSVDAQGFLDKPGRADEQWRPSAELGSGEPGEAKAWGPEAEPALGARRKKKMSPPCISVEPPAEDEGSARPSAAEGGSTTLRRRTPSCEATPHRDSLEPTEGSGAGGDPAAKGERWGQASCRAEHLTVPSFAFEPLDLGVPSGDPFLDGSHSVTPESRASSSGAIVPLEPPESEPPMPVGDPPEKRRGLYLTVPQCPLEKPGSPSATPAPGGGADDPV

[13] = target: Peroxisome proliferator-activated receptor gamma/Nuclear receptor coactivator 3 (Homo sapiens, UniProt P37231); assay type: functional;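 further: agonist potency for raising coactivator recruitment to the receptor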
[14] = target: Cytochrome P450 2C9 (Homo sapiens, UniProt P11712)
[15] = target: Peroxisome proliferator-activated receptor gamma/Nuclear receptor coactivator 2 (Homo sapiens, UniProt P37231); assay type: functional;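 further: agonist potency for raising coactivator recruitment to the receptor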
[16] = viability of PTEN-deleted HCT116 cells – cell-based, HCT116 PTEN knockout, dose response (AID 1047); assay type: functional;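 further: HCT116 colon tumor cells with PTEN knocked out; cells exposed to compound for 60 hours before readout; potency for loss of cell viability measured by luminescence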
[17] = target: T5, Cytochrome P450 1A2 (Homo sapiens, UniProt P05177);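 further: PubChem cytochrome P450 panel assay, CYP1A2 panel member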
T5 sequence (P05177 whole entry): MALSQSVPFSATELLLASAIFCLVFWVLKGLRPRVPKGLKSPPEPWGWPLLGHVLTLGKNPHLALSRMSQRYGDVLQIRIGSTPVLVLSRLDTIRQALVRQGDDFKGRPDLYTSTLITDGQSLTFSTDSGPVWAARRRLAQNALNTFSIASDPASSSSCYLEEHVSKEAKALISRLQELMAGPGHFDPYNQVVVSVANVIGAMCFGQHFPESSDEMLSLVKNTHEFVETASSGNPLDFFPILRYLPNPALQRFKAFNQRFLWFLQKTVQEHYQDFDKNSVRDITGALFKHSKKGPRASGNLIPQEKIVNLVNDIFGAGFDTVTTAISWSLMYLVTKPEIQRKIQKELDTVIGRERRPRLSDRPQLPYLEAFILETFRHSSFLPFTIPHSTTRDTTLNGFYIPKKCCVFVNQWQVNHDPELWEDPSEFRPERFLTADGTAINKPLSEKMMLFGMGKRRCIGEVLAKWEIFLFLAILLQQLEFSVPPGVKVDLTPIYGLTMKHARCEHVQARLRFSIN

[18] = viability of HCT116 lacking mutant beta-catenin – cell-based, human colon tumor, dose response (AID 1045); assay type: functional;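 further: HCT116 colon tumor cells with beta catenin knocked out; cells exposed to compound for 60 hours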
[19] = target: Peroxisome proliferator-activated receptor gamma/Nuclear receptor coactivator 1 (Homo sapiens, UniProt P37231); assay type: functional;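 further: agonist potency as compounds enhance coactivator SRC-1 recruitment to PPARgamma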
[20] = target: T6, Fatty acid synthase (Homo sapiens, UniProt P49327); test: inhibition of human FAS-TE enzyme activity – biochemical, kinetic fluorescence intensity, dose response (AID 624326); assay type: functional;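 further: rate of fluorescence rise from hydrolysis of a fluorogenic O-methyl fluorescein ester substrate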
T6 sequence (P49327 whole entry): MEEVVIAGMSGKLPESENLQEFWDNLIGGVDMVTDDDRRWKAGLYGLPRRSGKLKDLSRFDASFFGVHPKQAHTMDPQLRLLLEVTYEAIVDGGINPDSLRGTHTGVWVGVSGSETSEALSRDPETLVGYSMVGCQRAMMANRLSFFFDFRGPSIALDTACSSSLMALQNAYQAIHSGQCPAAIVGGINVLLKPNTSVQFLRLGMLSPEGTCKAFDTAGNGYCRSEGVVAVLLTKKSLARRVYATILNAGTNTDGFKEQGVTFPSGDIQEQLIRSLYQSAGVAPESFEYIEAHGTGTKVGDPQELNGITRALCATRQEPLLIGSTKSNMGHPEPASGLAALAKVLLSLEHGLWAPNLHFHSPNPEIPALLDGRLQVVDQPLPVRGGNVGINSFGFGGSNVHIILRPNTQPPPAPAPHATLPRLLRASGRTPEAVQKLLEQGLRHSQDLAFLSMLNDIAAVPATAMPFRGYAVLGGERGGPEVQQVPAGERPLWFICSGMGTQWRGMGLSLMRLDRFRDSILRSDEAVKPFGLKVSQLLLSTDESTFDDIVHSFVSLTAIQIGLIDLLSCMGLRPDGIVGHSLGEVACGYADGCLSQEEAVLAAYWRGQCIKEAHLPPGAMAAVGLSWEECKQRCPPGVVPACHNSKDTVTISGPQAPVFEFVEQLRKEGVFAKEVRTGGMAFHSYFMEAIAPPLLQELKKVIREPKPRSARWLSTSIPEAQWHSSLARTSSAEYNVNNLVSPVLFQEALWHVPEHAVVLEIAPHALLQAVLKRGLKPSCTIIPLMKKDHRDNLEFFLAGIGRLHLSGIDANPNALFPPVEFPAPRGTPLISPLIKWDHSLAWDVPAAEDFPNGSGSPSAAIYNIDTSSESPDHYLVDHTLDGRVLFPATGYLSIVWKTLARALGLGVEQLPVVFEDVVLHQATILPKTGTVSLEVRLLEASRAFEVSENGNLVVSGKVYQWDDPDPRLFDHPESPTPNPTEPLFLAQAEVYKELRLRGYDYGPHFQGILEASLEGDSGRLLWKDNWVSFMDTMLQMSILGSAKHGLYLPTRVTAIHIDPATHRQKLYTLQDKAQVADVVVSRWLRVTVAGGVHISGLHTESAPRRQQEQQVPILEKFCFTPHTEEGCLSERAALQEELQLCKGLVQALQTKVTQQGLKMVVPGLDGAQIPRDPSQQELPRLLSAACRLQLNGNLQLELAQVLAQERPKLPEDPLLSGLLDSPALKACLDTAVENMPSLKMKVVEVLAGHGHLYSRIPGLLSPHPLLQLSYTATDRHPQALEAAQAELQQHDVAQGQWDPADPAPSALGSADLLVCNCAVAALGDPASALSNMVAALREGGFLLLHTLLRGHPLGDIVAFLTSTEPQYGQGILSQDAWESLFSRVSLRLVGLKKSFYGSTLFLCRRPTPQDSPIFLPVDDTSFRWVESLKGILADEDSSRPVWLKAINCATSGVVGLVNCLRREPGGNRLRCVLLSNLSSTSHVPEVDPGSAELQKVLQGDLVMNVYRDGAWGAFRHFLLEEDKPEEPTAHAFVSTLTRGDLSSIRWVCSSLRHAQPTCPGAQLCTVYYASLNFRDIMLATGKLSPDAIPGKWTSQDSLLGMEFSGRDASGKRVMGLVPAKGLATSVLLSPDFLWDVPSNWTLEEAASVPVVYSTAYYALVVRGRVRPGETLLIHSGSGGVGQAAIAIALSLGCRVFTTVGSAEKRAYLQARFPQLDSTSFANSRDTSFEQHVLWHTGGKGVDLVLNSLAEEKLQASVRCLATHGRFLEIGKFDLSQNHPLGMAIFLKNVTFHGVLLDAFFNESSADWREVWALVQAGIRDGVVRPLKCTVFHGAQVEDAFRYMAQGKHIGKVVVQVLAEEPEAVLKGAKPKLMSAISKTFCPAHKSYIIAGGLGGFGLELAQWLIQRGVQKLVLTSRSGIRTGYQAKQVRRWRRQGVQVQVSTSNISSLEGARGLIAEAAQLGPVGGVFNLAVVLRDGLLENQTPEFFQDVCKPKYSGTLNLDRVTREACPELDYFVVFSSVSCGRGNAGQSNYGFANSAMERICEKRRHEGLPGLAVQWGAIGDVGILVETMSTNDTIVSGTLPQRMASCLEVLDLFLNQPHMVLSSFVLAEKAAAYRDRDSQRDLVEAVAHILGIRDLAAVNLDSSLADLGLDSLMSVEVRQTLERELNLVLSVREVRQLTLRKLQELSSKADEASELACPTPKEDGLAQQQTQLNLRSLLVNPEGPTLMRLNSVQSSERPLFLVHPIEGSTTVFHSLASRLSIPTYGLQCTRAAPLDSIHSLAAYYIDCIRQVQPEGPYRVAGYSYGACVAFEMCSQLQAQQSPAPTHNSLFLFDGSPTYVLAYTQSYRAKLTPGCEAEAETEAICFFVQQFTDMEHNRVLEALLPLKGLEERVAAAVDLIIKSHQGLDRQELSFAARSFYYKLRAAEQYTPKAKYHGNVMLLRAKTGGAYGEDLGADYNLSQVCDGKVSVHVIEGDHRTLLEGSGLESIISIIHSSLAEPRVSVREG

[21] = target: T6, Fatty acid synthase; test: inhibition of human FAS-TE enzyme activity – biochemical, endpoint fluorescence intensity, uHTS hits, dose response (AID 624327); assay type: functional;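 further: fluorescence from hydrolysis of an O-methyl fluorescein acyl ester substrate by the enzyme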
[22] = target: T7, Long-chain-fatty-acid--AMP ligase FadD28 (Mycobacterium tuberculosis, UniProt P9WQ59); test: Fluorescence polarization aasay to screen for inhibitors that compete for the binding of FadD28 to a bisubstrate Measured in Biochemical System Using Plate Reader - 2147-01_Inhibitor_Dose_CherryPick_Activity.; assay type: functional, Mycobacterium tuberculosis H37Rv
T7 sequence (P9WQ59 whole entry): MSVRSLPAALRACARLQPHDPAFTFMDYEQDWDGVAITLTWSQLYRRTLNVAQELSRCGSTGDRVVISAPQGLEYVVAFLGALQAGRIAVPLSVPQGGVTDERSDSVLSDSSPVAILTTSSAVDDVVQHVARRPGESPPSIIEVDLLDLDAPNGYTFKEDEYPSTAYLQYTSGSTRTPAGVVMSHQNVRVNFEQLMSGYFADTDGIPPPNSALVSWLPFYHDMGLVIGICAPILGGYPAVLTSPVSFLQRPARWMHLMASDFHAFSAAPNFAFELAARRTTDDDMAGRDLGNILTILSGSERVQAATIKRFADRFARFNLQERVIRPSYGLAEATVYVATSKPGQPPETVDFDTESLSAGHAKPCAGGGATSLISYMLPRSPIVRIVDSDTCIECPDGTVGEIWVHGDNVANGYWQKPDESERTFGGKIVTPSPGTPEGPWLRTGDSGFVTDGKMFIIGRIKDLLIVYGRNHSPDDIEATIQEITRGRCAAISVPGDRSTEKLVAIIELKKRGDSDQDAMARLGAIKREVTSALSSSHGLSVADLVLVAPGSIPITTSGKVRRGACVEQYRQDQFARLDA

[23] = test system: BJ; test: BJ-TERT fibroblast viability loss – cell-based, RAS-independent, luminescence, dose response (AID 1933); assay type: functional; conditions: Homo sapiens
[24] = DRD fibroblast viability loss – cell-based, non-viral oncogenic, luminescence, dose response (AID 1934); assay type: functional; conditions: Homo sapiens
[25] = Luminescence Cell-Based Dose Confirmation HTS to Identify Inhibitors of Platelet Dense Granule Release. [Related pubchem assays: 1663 (Primary HTS), 1678 (Summary of Project)]; assay type: functional
[26] = target: Luciferin 4-monooxygenase (Photinus pyralis, UniProt P08659); test: inhibition of purified Photinus pyralis luciferase – biochemical, luminescence, dose response (AID 1891)
[27] = test system: BJ; test: cells; assay type: functional, cell-based; conditions: Homo sapiens
[28] = test system: BJ; test: BJ-TERT-LT-ST fibroblast viability loss – cell-based, RAS-independent, luminescence, dose response (AID 1935); assay type: functional; conditions: Homo sapiens;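 further: BJ fibroblasts immortalized with TERT plus LT and ST oncogenes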
[29] = test system: Streptococcus sp. 'group A'; test: Streptococcus pyogenes SK(-)GAS viability under kanamycin – luminescence, BacTiterGlo, confirmation, counter-screen for streptokinase expression inhibitor project, dose response (AID 1900); assay type: functional, organism-based
[30] = test system: Streptococcus; test: GAS UMAA2166 growth inhibition – luminescence, BacTiterGlo, counter-screen for streptokinase expression inhibitor project, dose response (AID 1915); assay type: functional, organism-based;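 further: potency for reduction of bacterial viability or growth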
[31] = target: T8, CAAX prenyl protease 2 (Homo sapiens, UniProt Q9Y256); test: inhibition of Ras-converting CAAX protease Rce1 – biochemical, yeast membranes, quenched-peptide fluorescence, cherry-pick, dose response (AID 588849)
T8 sequence (Q9Y256 whole entry): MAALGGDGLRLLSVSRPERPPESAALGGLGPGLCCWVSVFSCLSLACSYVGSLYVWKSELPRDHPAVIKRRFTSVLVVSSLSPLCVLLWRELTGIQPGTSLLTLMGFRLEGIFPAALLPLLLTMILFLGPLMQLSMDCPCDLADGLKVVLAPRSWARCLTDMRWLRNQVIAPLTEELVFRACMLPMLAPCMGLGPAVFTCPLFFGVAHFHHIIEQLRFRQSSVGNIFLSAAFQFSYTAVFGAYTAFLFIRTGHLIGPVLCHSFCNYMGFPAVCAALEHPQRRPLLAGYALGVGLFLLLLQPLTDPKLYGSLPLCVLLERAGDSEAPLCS

SMILES: CC1(C)Cc2c(sc(NC(=S)NC(=O)c3ccccc3)c2C(=O)O)CO1
- IC50 [1]: 21.1 µM (inactive)
- IC50 [2]: 13.1 µM (active)

SMILES: c1ccc(CCCN2CCN(CCOC(c3ccccc3)c3ccccc3)CC2)cc1
- AC50 [3]: 23.8 µM (active)

SMILES: COc1ccc(C(O)(C2CCCCC2)C(CN2CCOCC2)c2ccccc2)cc1 (configuration not stated)
- AC50 [4]: 1.09 µM (active)
- AC50 [5]: 7.26 µM (active)
- AC50 [6]: 11.1 µM (active)
- AC50 [7]: 5.2 µM (active)

SMILES: CCN(CC)c1ccc(Nc2nc(Cl)ncc2Br)cc1
- IC50 [8]: 50.3 µM (active)
- CC50 [9]: 100 µM (active)

SMILES: CC(C)COC(=O)c1ccc(N2C(=O)c3ccccc3C2=O)cc1
- IC50 [1]: 16.2 µM (active)
- EC50 [10]: > 104 µM (inactive)
- IC50 [2]: 66.5 µM (inactive)

SMILES: Cc1cc(N2CCN(c3nc(-c4ccccc4)cs3)CC2)c2ccccc2n1
- IC50 [11]: 9.27 µM (active)

SMILES: CCn1cc(C(=O)O)c(=O)c2cc(F)c(N3CCN(C(=S)Nc4ccc(OC)cc4)CC3)cc21
- IC50 [11]: 73.8 µM (inactive)

SMILES: CC(C)Oc1ccc(C(CC(=O)NCc2ccco2)c2ccccc2)cc1 (configuration not stated)
- IC50 [1]: 16.4 µM (active)
- EC50 [12]: 4.77 µM (active)
- IC50 [2]: 11.6 µM (active)

SMILES: CCOc1ccc(-c2nn(-c3ccccc3)cc2/C=C2\SC(N)=NC2=O)cc1C
- EC50 [13]: > 79.4 µM (not active)
- AC50 [14]: inconclusive
- EC50 [15]: > 79.4 µM (not active)
- EC50 [16]: 8.6 µM (active)
- AC50 [17]: 15.8 µM (inconclusive)
- EC50 [18]: 8.58 µM (active)
- EC50 [19]: > 79.4 µM (not active)

SMILES: O=C(COC(=O)c1cc([N+](=O)[O-])ccc1NCCO)NCc1cccs1
- IC50 [20]: 1.68 µM (active)
- IC50 [21]: 3.84 µM (active)

SMILES: CC(C)N(C)S(=O)(=O)c1ccc(NC(=O)CSC(=S)N2CCCC2)cc1
- AC50 [22]: > 100 µM (inactive)

SMILES: O=C(CCCN1C(=O)C(=Cc2ccc3c(c2)OCO3)SC1=S)Nc1ccc(C(=O)O)c(O)c1
- IC50 [11]: 80 µM (inactive)

SMILES: CC(Cc1ccccc1)=NNS(=O)(=O)c1ccc([N+](=O)[O-])cc1
- IC50 [20]: 12.7 µM (active)
- IC50 [21]: 9.15 µM (active)

SMILES: Cn1c(/C=C/c2ccccc2)nc2ccccc21
- AC50 [3]: 3.81 µM (active)
- EC50 [23]: 10.8 µM (active)
- EC50 [24]: 8.49 µM (active)
- EC50 [25]: 1.89 µM (active)
- EC50 [26]: 1.09 µM (active)
- EC50 [27]: 7.95 µM (active)
- EC50 [28]: 18.9 µM (active)

SMILES: Cc1ccc(S(=O)(=O)/N=C(\Sc2ccccc2)c2ccccc2)cc1
- IC50 [20]: 54 µM (inactive)
- IC50 [21]: 11 µM (active)

SMILES: C[C@H]1COc2c(N3CCN(C)CC3)c(F)cc3c(=O)c(C(=O)O)cn1c23 [LEVOFLOXACIN]
- EC50 [29]: 2.1 µM (active)
- EC50 [30]: 0.911 µM (active)
- AC50 [31]: 41 µM (active)
